Measurements published in patent US20100063302A1, “CYCLIC SULFONIUM SALT, METHOD FOR PRODUCTION OF CYCLIC SULFONIUM SALT, AND GLYCOSIDASE INHIBITOR” (Takano Co., Ltd., priority 2007, published 2010).
pIC50: −log10 of the molar value. Values after ≈ are worked out from the molar mass of the structure shown.

What was measured:
Format in all cases: biochemical
[1] = target: T1, isomaltase (Homo sapiens, UniProt P14410); test: α-glycosidase-inhibiting activity, isomaltase (small intestinal brush border membrane vesicles); details: substrate isomaltose (74 mM), 0.1 M maleic acid buffer pH 6.0, 37° C., 30 minutes, glucose-oxidase method
T1 construct: suspending small intestinal brush border membrane vesicles in 0.1 M maleic acid buffer (pH 6.0); from tissue; host or cells: small intestinal brush border membrane vesicles
Method: (§1) The compounds (6a), (6b), (6c) and (6d), each prepared by Example 25, as well as the compound (6g) prepared by Example 27 were each measured for α-glycosidase-inhibiting activity. […] To each of sucrose (74 mM), maltose (74 mM) and isomaltose (74 mM) solution as a substrate, there was added a solution (0.05 ml) of a test compound in various concentrations, and the resulting mixture was pre-heated at 37° C. for 2 to 3 minutes, followed by addition of an enzyme solution and reaction for 30 minutes. Thereafter, water was added and the resulting mixture was heated in a boiling water bath for 2 minutes in order to inactivate the enzyme. Separately, the enzyme solution was added to each of the test solutions and immediately thereafter heated in boiling water bath for 2 minutes to inactivate the enzyme. This solution was used as a blank. The amount of […] D-glucose was measured in accordance with glucose-oxidase method. The substrate and test compounds were used in a solution of 0.1 M maleic acid buffer (pH 6.0). A 50% inhibitory concentration (IC50) was calculated from the value observed.

[2] = target: maltase; test: α-glycosidase-inhibiting activity, maltase (small intestinal brush border membrane vesicles); details: substrate maltose (74 mM), 0.1 M maleic acid buffer pH 6.0, 37° C., 30 minutes, glucose-oxidase method
Method: as §1

[3] = target: T2, sucrase (Homo sapiens, UniProt P14410); test: α-glycosidase-inhibiting activity, sucrase (small intestinal brush border membrane vesicles); details: substrate sucrose (74 mM), 0.1 M maleic acid buffer pH 6.0, 37° C., 30 minutes, glucose-oxidase method
T2 construct: suspending small intestinal brush border membrane vesicles in 0.1 M maleic acid buffer (pH 6.0); from tissue; host or cells: small intestinal brush border membrane vesicles
Method: as §1

T2 sequence (P14410 whole entry, species assumed): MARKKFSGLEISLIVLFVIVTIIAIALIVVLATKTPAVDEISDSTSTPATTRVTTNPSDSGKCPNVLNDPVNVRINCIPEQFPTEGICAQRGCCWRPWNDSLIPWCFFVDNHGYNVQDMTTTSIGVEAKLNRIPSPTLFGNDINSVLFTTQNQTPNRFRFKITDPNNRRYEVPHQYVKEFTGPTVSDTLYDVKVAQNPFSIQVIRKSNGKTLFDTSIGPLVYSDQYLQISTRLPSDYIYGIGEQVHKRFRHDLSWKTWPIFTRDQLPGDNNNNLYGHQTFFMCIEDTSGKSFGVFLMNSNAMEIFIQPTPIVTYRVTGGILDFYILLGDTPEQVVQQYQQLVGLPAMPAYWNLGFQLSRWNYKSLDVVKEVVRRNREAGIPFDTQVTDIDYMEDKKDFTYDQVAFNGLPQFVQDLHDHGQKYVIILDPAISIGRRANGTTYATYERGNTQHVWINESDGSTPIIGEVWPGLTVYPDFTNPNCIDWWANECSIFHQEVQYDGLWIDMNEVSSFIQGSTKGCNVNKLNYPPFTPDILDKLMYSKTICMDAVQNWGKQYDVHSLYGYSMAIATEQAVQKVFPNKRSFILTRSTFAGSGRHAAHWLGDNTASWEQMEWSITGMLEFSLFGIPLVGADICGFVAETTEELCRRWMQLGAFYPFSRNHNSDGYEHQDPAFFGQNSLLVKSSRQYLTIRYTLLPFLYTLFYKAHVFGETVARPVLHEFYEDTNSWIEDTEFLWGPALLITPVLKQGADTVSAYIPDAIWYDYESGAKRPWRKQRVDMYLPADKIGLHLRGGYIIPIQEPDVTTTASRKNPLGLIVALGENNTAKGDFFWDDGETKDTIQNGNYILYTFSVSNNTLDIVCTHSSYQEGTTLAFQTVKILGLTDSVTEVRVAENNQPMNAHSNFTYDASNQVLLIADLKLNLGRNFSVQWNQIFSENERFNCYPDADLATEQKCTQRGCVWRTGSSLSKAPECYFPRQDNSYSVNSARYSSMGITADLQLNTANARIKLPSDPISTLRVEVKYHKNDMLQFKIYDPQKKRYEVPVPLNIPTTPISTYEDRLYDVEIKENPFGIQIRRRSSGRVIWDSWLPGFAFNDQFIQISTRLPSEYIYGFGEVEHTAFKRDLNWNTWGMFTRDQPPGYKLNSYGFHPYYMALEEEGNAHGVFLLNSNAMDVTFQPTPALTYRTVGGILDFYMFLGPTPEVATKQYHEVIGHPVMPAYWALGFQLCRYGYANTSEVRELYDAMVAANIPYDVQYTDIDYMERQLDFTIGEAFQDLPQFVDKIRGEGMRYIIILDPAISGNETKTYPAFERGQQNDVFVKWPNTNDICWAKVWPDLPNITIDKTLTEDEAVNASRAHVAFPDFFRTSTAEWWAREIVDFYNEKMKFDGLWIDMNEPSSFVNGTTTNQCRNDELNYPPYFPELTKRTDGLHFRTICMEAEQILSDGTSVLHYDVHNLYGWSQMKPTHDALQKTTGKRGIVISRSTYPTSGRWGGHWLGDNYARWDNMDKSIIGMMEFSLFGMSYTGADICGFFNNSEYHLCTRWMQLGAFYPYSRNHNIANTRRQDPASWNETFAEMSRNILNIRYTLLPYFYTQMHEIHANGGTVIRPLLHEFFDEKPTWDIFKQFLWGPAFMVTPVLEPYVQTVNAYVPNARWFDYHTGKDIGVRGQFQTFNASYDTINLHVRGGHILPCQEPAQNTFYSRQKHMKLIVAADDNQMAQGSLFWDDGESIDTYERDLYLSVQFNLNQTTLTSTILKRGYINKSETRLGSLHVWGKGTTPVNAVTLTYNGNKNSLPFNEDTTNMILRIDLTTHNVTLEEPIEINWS
T1 sequence (P14410 whole entry, species assumed): as above

Structure (SMILES)	pIC50 [1]	IC50, maltase [2] [µg/mL]	pIC50 [3]
O=S(=O)([O-])OC(C(O)C[S+]1CC(O)C(O)C1CO)C(O)C(O)C(O)CO (single isomer, unassigned) [Compound (6a)]	5.79	20.6 (≈ 48.5 µM)	4.17
O=S(=O)([O-])OC(C(O)C[S+]1CC(O)C(O)C1CO)C(O)C(O)C(O)CO (single isomer, unassigned) [Compound (6b)]	4.97	>100	3.87
O=S(=O)([O-])OC(C(O)C[S+]1CC(O)C(O)C1CO)C(O)C(O)C(O)CO (single isomer, unassigned) [Compound (6d)]	5.19	24.8 (≈ 58.4 µM)	4.49
O=S(=O)([O-])OC(C(O)C[S+]1CC(O)C(O)C1CO)C(O)C(O)C(O)CO (single isomer, unassigned) [Compound (6g)]	3.80	>100	< 3.63
O=S(=O)([O-])OC(C(O)C[S+]1CC(O)C(O)C1CO)C(O)C(O)C(O)CO (single isomer, unassigned) [kotalanol, reference compound]	5.25	3.07 (≈ 7.23 µM)	6.12
O=S(=O)([O-])OC(C(O)C[S+]1CC(O)C(O)C1CO)C(O)C(O)C(O)CO (stereo not drawn) [Compound (6c)]	4.79	>100	3.67
